# Measurements: US8436004B2, “Bicycloaniline derivative” (MSD K.K., priority 2007, dated 2013)
# Experiments:
# [1] = biological target: T1, Wee1 kinase (Homo sapiens, UniProt P30291); experiment: Wee1 kinase-inhibitory effect (33P-ATP, Poly(Lys,Tyr) substrate, filter assay); assay type: biochemical; details: 10 μM ATP, 30° C., 30 minutes
# T1 construct: made in house; host or cells: Sf9 insect cells (recombinant baculovirus)
# Source text: Pharmacological Test 1 (Wee1 Kinase-Inhibitory Effect)
# (1) Purification of Wee1 Kinase:
# A cDNA of Wee1 kinase with […] (GST) fused at the amino terminal thereof was inserted into a baculovirus expression vector to construct a recombinant baculovirus, with which cells of an insect cell line Sf9 were infected for high expression therein. The infected cells were recovered and solubilized, and then the GST-tagged Wee1 kinase protein was adsorbed by a glutathion column, and eluted from the column with glutathion, and the active fraction was desalted in a desalting column to give a purified enzyme.
# (2) Determination of Wee1 Kinase Activity:
# In determination of the Wee1 kinase activity, a synthetic peptide, Poly(Lys,Tyr) Hydrobromide (Lys:Tyr (4:1)) bought from Sigma was used as the substrate.
# The amount of the reaction liquid was 21.1 μL; and the composition of the reaction buffer was 50 mM Tris-HCl buffer (pH 7.4)/10 mM magnesium chloride/1 mM dithiothreitol. The purified Wee1 kinase, 2.5 μg of the substrate peptide, 10 μM of non-labeled adenosine triphosphate (ATP) and 1 μCi of [γ-^33P]-labeled ATP (2500 Ci/mmol or more) were added to it, and reacted at 30° C. for 30 minutes. Next, 10 μL of 350 mM phosphate buffer was added to the reaction system to stop the reaction. The substrate peptide was adsorbed by a P81 paper filter 96-well plate, then washed a few times with 130 mM phosphate buffer, and its radioactivity was counted with a liquid scintillation counter. The [γ-^33P]-labeled ATP was bought from Amersham Bioscience.
# To add the test compound to the reaction system, the compound was diluted with dimethylsulfoxide (DMSO) to prepare a series of dilutions. 1.1 μL of each dilution was added to the reaction system. As a control, 1.1 μL of DMSO was added to the reaction system.
# [2] = system: Cdc2 (Cdk1) tyrosine 15-phosphorylation in NCI-H1299 cells; experiment: Cdc2 (Cdk1) tyrosine 15-phosphorylation-inhibitory effect in camptothecin-treated NCI-H1299 cells (ELISA); assay type: cell-based; details: Homo sapiens; NCI-H1299, camptothecin 200 nM 16 hours, then test compound + nocodazole 8 hours; read-out: Cdc2-Y15 Phosphorylation-Inhibitory Effect (H1299, + camptothecin) (EC50)
# Source text: Pharmacological Test 2 (Method of Determining Drug Potency with Cells (Cdc2 (Cdk1) Tyrosine 15-Phosphorylation-Inhibitory Effect))
# Fetal bovine serum (FBS) was obtained from Morgate; media RPMI1640 and DMEM were from Invitrogen; camptothecin was from Sigma; gemcitabine was from Nippon Eli Lilly; nocodazole and protease inhibitor cocktail were from Sigma; rabbit anti-Cdc2 antibody and mouse anti-Cdc2 antibody were from Santa Cruz Biotechnology; rabbit anti-tyrosine 15-phosphorylated Cdc2 antibody and horseradish peroxidase-labeled anti-mouse IgG antibody were from Cell Signaling Technology; sure blue reserve TMB peroxidase substrate was from Kirkegaard and Perry Laboratories.
# Human non-small cell lung cancer cells (NCI-H1299) and human colon cancer cells (WiDr) were obtained from American Type Culture Collection (ATCC).
# In the method of using NCI-H1299 cells, the cells were suspended in a medium of 10% FBS-added RPMI1640, and the cell suspension was applied to a 96-well Nunclondelta-processed plastic plate (bought from Nunc), in an amount of 2000 cells/100 μL/well, in which the cells were incubated overnight in 5% CO2-95% air at 37° C. Camptothecin was dissolved in dimethylsulfoxide (DMSO), and diluted with a medium of 10% FBS-added RPMI1640, and then this was applied to the plate on which the cells had been previously sowed, in an amount of 50 μL/well in such a manner that the final concentration of camptothecin could be 200 nM. Then, the cells were incubated for 16 hours at 37° C. in 5% CO2-95% air. The test compound was stepwise diluted with DMSO, then diluted with 4000 nM nocodazole-containing, 10% FBS-added RPMI1640, and applied to the plate on which the camptothecin-treated cells had been sowed, in an amount of 50 μL/well. The cells were incubated for 8 hours at 37° C. in 5% CO2-95% air, then the culture was removed, and a cytolytic buffer was added to the plate in an amount of 100 μL/well, shaken at 4° C. for 2 hours, then frozen at −80° C., and thawed to give a cell solution. Cdc2 and tyrosine 15-phosphorylated Cdc2 in the cell solution were determined through enzyme-linked immunosorbent assay (ELISA), and the ratio of tyrosine 15-phosphorylated Cdc2 to Cdc2 was calculated to obtain the 50% phosphorylation-inhibitory concentration of the test compound to the cells (EC50, nM). The cytolytic buffer used herein is an aqueous solution containing 20 mM Hepes (pH 7.5), 150 mM sodium chloride, 1 mM disodium ethylenediaminetetraacetate, 0.1% polyoxyethylene (10) octylphenyl ether, 1% protease inhibitor cocktail, 1 mM dithiothreitol, 2 mM sodium orthovanadate, 10 mM sodium fluoride and 10 mM glycerol diphosphate. Cdc2 was determined through ELISA as follows: A rabbit anti-Cdc2 antibody solution, which had been diluted 200-fold with 50 mM carbonate-bicarbonate buffer (pH 9.6), was applied to a 96-well maxisorpimmuno plate (bought from Nunc), in an amount of 50 μL/well, and statically kept overnight at 4° C. so as to fix the antibody on the plate. Next, this was washed three times with phosphate-buffered physiological saline (PBS), and 5% bovine serum albumin-containing PBS (5% BSA/PBS) was added thereto in an amount of 300 μL/well, and statically kept at room temperature for 2 hours, and then again washed three times with PBS. A mouse anti-Cdc2 antibody solution that had been diluted 100-fold with 0.05% polyoxyethylene sorbitan monolaurate and 1% BSA-containing Tris-HCl-buffered physiological saline (1% BSA/TBS-T) was added to it in an amount of 50 μL/well, and the cell solution was added thereto in an amount of 5 μL/well and statically kept overnight at 4° C. Next, this was washed three times with 0.05% polyoxyethylene sorbitan monolaurate and 0.1% BSA-containing Tris-HCl-buffered physiological saline (0.1% BSA/TBS-T), and then a horseradish peroxidase-labeled anti-mouse IgG antibody solution that had been diluted 2000-fold with 1% BSA/TBS-T was added thereto in an amount of 70 μL/well, and statically kept at room temperature for 3 hours. […]
# T1 sequence (P30291 whole entry): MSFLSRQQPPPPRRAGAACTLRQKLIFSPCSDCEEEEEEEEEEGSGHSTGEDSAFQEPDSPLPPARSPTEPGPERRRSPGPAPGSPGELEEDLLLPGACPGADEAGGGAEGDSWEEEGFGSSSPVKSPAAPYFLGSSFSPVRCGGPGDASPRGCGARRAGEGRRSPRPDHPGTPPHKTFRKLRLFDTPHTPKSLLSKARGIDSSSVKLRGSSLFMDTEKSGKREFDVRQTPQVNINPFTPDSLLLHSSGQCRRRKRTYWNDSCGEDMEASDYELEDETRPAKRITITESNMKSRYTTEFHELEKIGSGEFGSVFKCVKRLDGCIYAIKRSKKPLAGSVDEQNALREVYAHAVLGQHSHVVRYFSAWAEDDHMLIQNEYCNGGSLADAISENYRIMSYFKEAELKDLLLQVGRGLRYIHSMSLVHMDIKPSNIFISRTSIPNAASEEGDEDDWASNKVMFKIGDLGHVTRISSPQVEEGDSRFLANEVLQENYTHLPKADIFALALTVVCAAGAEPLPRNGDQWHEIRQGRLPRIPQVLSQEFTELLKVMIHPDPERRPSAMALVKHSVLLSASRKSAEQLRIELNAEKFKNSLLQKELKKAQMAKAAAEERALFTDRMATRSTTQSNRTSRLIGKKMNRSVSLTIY
Structure (SMILES),IC50 [1] [nM],EC50 [2] [nM]
"Cc1cc(Nc2ncc3c(=N)n(-c4c(Cl)cccc4Cl)c(=O)[nH]c3n2)cc2c1CCN(C)C2 [Example 21, 3-(2,6-dichlorophenyl)-7-{[2,5-dimethyl-1,2,3,4-tetrahydroisoquinolin-7-yl]amino}-4-imino-3,4-dihydropyrimido[4,5-d]pyrimidin-2(1H)-one]",4.8,11
CN(C)CC1CCc2cc(Nc3ncc4c(=N)n(-c5c(Cl)cccc5Cl)c(=O)[nH]c4n3)ccc2C1 (stereo not drawn) [Example 53],6.5,59
"Cc1cccc(Cl)c1-n1c(=O)[nH]c2nc(Nc3ccc4c(c3)CN(C)CC43CC3)ncc2c1=N [Example 14, 3-(2-chloro-6-methylphenyl)-4-imino-7-[(2′-methyl-2′,3′-dihydro-1′H-spiro[cyclopropane-1,4′-isoquinolin]-7′-yl)amino]-3,4-dihydropyrimido[4,5-d]pyrimidin-2(1H)-one]",10.4,77
CN(C)C1Cc2ccc(Nc3ncc4c(=N)n(-c5c(Cl)cccc5Cl)c(=O)n(C)c4n3)cc2C1 (stereo not drawn) [Example 9],6.6,24
CN(C)C1CCc2ccc(Nc3ncc4c(=N)n(-c5c(Cl)cccc5Cl)c(=O)[nH]c4n3)cc2C1 (stereo not drawn) [Example 43],5.1,45
"CN1CCc2cc(Nc3ncc4c(=N)n(-c5c(Cl)cccc5Cl)c(=O)[nH]c4n3)ccc2C1(C)C [Example 4, 3-(2,6-dichlorophenyl)-4-imino-7-[(1,1,2-trimethyl-1,2,3,4-tetrahydroisoquinolin-6-yl)amino]-3,4-dihydropyrimido[4,5-d]pyrimidin-2(1H)-one]",8.3,28
"CN1CCc2ccc(Nc3ncc4c(=N)n(-c5c(F)cccc5Cl)c(=O)[nH]c4n3)cc2C1 [Example 16, 3-(2-chloro-6-fluorophenyl)-4-imino-7-{[2-methyl-1,2,3,4-tetrahydroisoquinolin-7-yl]amino}-3,4-dihydropyrimido[4,5-d]pyrimidin-2(1H)-one]",6.8,50
"Cn1c(=O)n(-c2c(Cl)cccc2Cl)c(=N)c2cnc(Nc3ccc4c(c3)CCN(CCO)C4(C)C)nc21 [Example 22, 3-(2,6-dichlorophenyl)-7-{[2-(2-hydroxyethyl)-1,1-dimethyl-1,2,3,4-tetrahydroisoquinolin-6-yl]amino}-4-imino-1-methyl-3,4-dihydropyrimido[4,5-d]pyrimidin-2(1H)-one]",5.2,16
CN(C)C1CC(C)(C)c2ccc(Nc3ncc4c(=N)n(-c5c(Cl)cccc5Cl)c(=O)[nH]c4n3)cc21 (stereo not drawn) [Example 10],13.1,61
"CN1CCc2ccc(Nc3ncc4c(=N)n(-c5c(F)cc(F)cc5Cl)c(=O)[nH]c4n3)cc2C1 [Example 17, 3-(2-chloro-4,6-difluorophenyl)-4-imino-7-{[2-methyl-1,2,3,4-tetrahydroisoquinolin-7-yl]amino}-3,4-dihydropyrimido[4,5-d]pyrimidin-2(1H)-one]",9.2,47
"CN1CCc2ccc(Nc3ncc4c(=N)n(-c5c(Cl)cc(F)cc5Cl)c(=O)[nH]c4n3)cc2C1 [Example 18, 3-(2,6-dichloro-4-fluorophenyl)-4-imino-7-{[2-methyl-1,2,3,4-tetrahydroisoquinolin-7-yl]amino}-3,4-dihydropyrimido[4,5-d]pyrimidin-2(1H)-one]",8.9,35
"CN1CCc2cc(Nc3ncc4c(=N)n(-c5c(Cl)ccnc5Cl)c(=O)[nH]c4n3)ccc2C1(C)C [Example 5, 3-(2,4-dichloropyridin-3-yl)-4-imino-7-{[1,1,2-trimethyl-1,2,3,4-tetrahydroisoqunolin-6-yl]amino}-3,4-dihydropyrimido[4,5-d]pyrimidin-2(1H)-one]",9.6,70
"CN1CCc2ccc(Nc3ncc4c(=N)n(-c5c(Cl)cccc5Cl)c(=O)[nH]c4n3)cc2CC1 [Example 48, 3-(2,6-dichlorophenyl)-4-imino-7-[(3-methyl-2,3,4,5-tetrahydro-1H-3-benzazepin-7-yl)amino]-3,4-dihydropyrimido[4,5-d]pyrimidin-2(1H)-one]",8.6,54
"CC(=O)N1CCc2cc(Nc3ncc4c(=N)n(-c5c(Cl)cccc5Cl)c(=O)[nH]c4n3)ccc2C1(C)C [Example 79, 7-[(2-acetyl-1,1-dimethyl-1,2,3,4-tetrahydroisoquinolin-6-yl)amino]-3-(2,6-dichlorophenyl)-4-imino-3,4-dihydropyrimido[4,5-d]pyrimidin-2(1H)-one]",6.3,
"CCN1CCc2cc(Nc3ncc4c(=N)n(-c5c(Cl)cccc5Cl)c(=O)[nH]c4n3)ccc2C1 [Example 30, 3-(2,6-dichlorophenyl)-4-imino-7-{[2-ethyl-1,2,3,4-tetrahydroisoquinolin-6-yl]amino}-3,4-dihydropyrimido[4,5-d]pyrimidin-2(1H)-one]",7.1,25
CN(C)C1Cc2ccc(Nc3ncc4c(=N)n(-c5c(Cl)cccc5Cl)c(=O)[nH]c4n3)cc2C1 (stereo not drawn) [Example 39],6.5,37
"CN1Cc2cc(Nc3ncc4c(=O)n(-c5c(Cl)cccc5Cl)c(=O)[nH]c4n3)ccc2C2(CC2)C1 [Example 82, 3-(2,6-dichlorophenyl)-7-[(2′-methyl-2′,3′-dihydro-1′H-spiro[cyclopropane-1,4′-isoquinolin]-7′-yl)amino]pyrimido[4,5-d]pyrimidin-2,4(1H,3H)-dione]",3.3,30
